Measurements published in ChEMBL document CHEMBL1137597, “Evolution of thiazolidine-based blockers of human Kv1.5 for the treatment of atrial arrhythmias” (Bioorg Med Chem Lett, 2007).

Key:
[1] = target: T1, Potassium voltage-gated channel subfamily A member 5 (Homo sapiens, UniProt P22460); experiment: Inhibition of Kv1.5 mediated ultra-rapid delayed rectifier current Ikur in human atrial cells; assay type: functional, cell-based, Cardiac atrium
[2] = target: T1, Potassium voltage-gated channel subfamily A member 5; experiment: Inhibition of ultra-rapid delayed rectifier current Ikur in human atrial cells at 1uM; assay type: functional, cell-based; settings: Cardiac atrium
[3] = Percent oxidation in rat S9 microsomal fraction; assay type: ADME; settings: read-out: Oxidation

T1 sequence (P22460 whole entry): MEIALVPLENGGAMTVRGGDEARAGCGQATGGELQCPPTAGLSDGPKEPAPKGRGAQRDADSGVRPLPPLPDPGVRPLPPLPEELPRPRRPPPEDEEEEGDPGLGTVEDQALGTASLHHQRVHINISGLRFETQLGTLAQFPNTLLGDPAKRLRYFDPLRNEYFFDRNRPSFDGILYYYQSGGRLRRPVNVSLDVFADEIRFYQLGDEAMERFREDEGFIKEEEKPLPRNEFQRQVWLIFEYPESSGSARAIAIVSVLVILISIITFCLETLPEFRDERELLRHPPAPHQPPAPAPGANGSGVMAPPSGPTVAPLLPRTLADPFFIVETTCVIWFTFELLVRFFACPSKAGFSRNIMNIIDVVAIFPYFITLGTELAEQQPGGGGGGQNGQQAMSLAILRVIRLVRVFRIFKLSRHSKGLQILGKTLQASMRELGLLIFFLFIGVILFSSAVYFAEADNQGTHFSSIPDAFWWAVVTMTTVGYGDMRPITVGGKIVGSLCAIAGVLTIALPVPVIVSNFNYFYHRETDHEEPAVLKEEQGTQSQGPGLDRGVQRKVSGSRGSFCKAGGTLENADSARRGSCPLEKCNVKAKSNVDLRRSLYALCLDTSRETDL

SMILES	IC50 [1] [nM]	inhibition [2] [%]	metabolised [3] [%]
COc1ccc(CON2C(=O)CSC2c2ccc(C)c(C)c2)cc1 (stereo not drawn)	95	–	–
O=C1CSC(c2ccc(Cl)c(Cl)c2)N1OCc1ccccc1 (stereo not drawn)	463	77	–
COc1ccc(C2SCCN2C(=O)COc2ccccc2)cc1 (stereo not drawn)	–	72	–
COc1ccc(CCN2C(=O)CSC2(C)c2ccc(C)c(C)c2)cc1 (stereo not drawn)	69	96	–
Cc1ccc(C2SCCN2C(=O)COc2ccccc2)cc1 (stereo not drawn)	–	80	–
COc1ccc(CON2C(=O)CSC2c2ccc(Cl)cc2)cc1 (stereo not drawn)	187	–	–
COc1ccccc1CON1C(=O)CSC1c1ccc(C)c(C)c1 (stereo not drawn)	177	92	–
COc1ccc(CCN2C(=O)CSC23CCc2c(C)cccc23)cc1 (stereo not drawn)	487	61	–
COc1ccc(CON2C(=O)CSC2c2ccc(Cl)c(Cl)c2)cc1 (stereo not drawn)	113	92	–
COc1ccc(C2SCCN2C(=O)COc2ccccc2)cc1Cl (stereo not drawn)	–	35	–
Cc1ccc(C2SCCN2C(=O)COc2ccccc2)cc1C (stereo not drawn)	–	95	–
O=C(COc1ccccc1)N1CCSC1c1ccc(Cl)c(Cl)c1 (stereo not drawn)	–	93	–
Cc1ccc(C2SCCN2C(=O)CCc2ccccc2)cc1C (stereo not drawn)	–	87	–
COc1ccc(CCN2C(=O)CSC23CCc2cc(Cl)ccc23)cc1 (stereo not drawn)	812	66	–
O=C1CSC(c2ccc(Cl)cc2)N1OCc1ccccc1 (stereo not drawn)	997	35	–
COc1ccc(CCC(=O)N2CCSC2c2ccc(C)c(C)c2)cc1 (stereo not drawn)	150	89	–

SMILES	IC50 [1] [nM]	inhibition [2] [%]	metabolised [3] [%]
COc1ccc(/C=C/C(=O)N2CCSC2c2ccc(C)c(C)c2)cc1 (stereo not drawn)	–	92	–
COc1ccc(CON2C(=O)CSC2c2ccccc2)cc1 (stereo not drawn)	924	–	–
COc1cccc(CON2C(=O)CSC2c2ccc(C)c(C)c2)c1 (stereo not drawn)	269	75	–
Cc1ccc(C2SCC(=O)N2OCc2ccccc2)cc1C (stereo not drawn)	207	92	–
CN(C)c1ccc(C2SCCN2C(=O)COc2ccccc2)cc1 (stereo not drawn)	–	55	–
COc1ccc(CCN2C(=O)CSC2(C)c2ccc(C)cc2)cc1 (stereo not drawn)	390	88	–
COc1cccc(CON2C(=O)CSC2c2ccc(Cl)c(Cl)c2)c1 (stereo not drawn)	179	–	–
Cc1ccc(C2SCCN2C(=O)OCc2ccccc2)cc1C (stereo not drawn)	–	18	–
COc1ccc(CC(=O)N2CCSC2c2ccc(C)c(C)c2)cc1 (stereo not drawn)	537	77	–
COc1ccccc1CON1C(=O)CSC1c1ccc(Cl)c(Cl)c1 (stereo not drawn)	204	–	–
COc1cccc(CON2C(=O)CSC2c2ccc(Cl)cc2)c1 (stereo not drawn)	380	–	–
COc1ccc(CCCC(=O)N2CCSC2c2ccc(C)c(C)c2)cc1 (stereo not drawn)	–	68	–
COc1ccc(CC(=O)N2CCSC2c2ccc(Cl)c(Cl)c2)cc1 (stereo not drawn)	–	–	100
COc1ccccc1CON1C(=O)CSC1c1ccc(Cl)cc1 (stereo not drawn)	–	25	–
O=C(COc1ccccc1)N1CCSC1c1ccc(C2CC2)cc1 (stereo not drawn)	–	64	–
